Source: patent US20210147932A1, “FLUORESCENT PROBES FOR QUANTIFICATION OF DNA DAMAGE AND REPAIR” (The Board of Trustees of the Leland Stanford Junior …, priority 2019, published 2021)
Where “and” joins values, the source holds several entries; their conditions need not be identical. Equal entries are not always repeated.

Test system: AP-DNA
Assay: Oxime formation kinetics of probe with AP-DNA
Assay type: biochemical
Method: FIG. 3 provides representative plots for calculations of k2 for Compound (1) (CCVJ1) under various buffer conditions with oligo 15. Plots were fitted in OriginPro 8.5 according to the equation derived by Larsen et. al.^5 for second-order rate constants of oxime formation. Apparent second-order rate constants were calculated as the average of three replicates.
FIG. 5A provides fluorescence real-times responses for oxime formation under varied conditions. The Time course of oxime formation between Compound (1) (CCVJ1) (5 μM) and AP-DNA (20 μM) under varied buffer conditions (50 mM) is shown. Ionic strength adjusted to 150 mM with NaCl
Next the reaction rates with CCVJ1 were evaluated. To measure oxime formation kinetics, 5 μM CCVJ1 was reacted with 20 μM AP DNA, and the resulting fluorescence time course was used to determine second-order rate constants by nonlinear regression analysis. Tris buffer was selected since it is commonly used in glycosylase assays with a salt concentration of 100 mM NaCl.
In addition to Tris buffer, oxime formation kinetics were also measured for CCVJ1 with AP DNA in a solution of a catalytic amine buffer previously shown to accelerate oxime formation. To this end, it was employed 50 mM N,N-dimethylethylenediamine (DEDA)•HCl buffered to a pH of 7.0 in place of the above Tris buffers. […] Such rapid rates of oxime formation at neutral pH are unprecedented for unactivated aldehydes.
In addition to the 5′ and 3′ neighboring bases, studies were done of the effect of the orphaned base Z paired opposite the abasic site on the UBER probe system (FIG. 10, panels C-D). Using the sequence where X=C and Y=G, the identity was varied of the base Z opposite the AP site. […] As a result, the smaller pyrimidine bases yielded a greater fluorescence light up response than the larger purine bases. It was also observed a strong effect by the opposing base on the rate of oxime formation (FIG. 10, panel D). […] This trend is in contrast to the neighboring base effect discussed above in which stronger stacking bases accelerated the rate of oxime formation.
General procedure for creating AP site DNA: A deoxyuridine containing oligonucleotide (typically 5-20 μM) was treated with 10 U/mL E. coli UDG (New England Biolabs) for 10 minutes at 37° C. in buffer to create AP site containing DNA (see below for MALDI-TOF confirmation). The hairpin was then reacted with probe from a DMSO stock solution (final DMSO concentration <5%).
Fluorescence time courses: Unless otherwise stated, fluorescence time courses were collected on a Fluoroskan Ascent Microplate Fluorometer (Thermo Fisher Scientific) with black, non-binding 384 well plates (Greiner) at a reaction volume of 60 μL with 50 mM Tris buffer pH 7 (ionic strength adjusted to 100 mM with NaCl) with a fluorescein filter set (Ex. 485, Em. 538).

N#C/C(=C\c1cc2c3c(c1)CCCN3CCC2)C(=O)NCCON [CCVJ1]
rate of oxime formation with optimal neighboring bases (AP hairpin X=C, Y=G, Z=C): 320 ± 13 M⁻¹ s⁻¹
Apparent second-order rate constant of oxime formation k2 (DEDA pH 7 (50 mM N,N-dimethylethylenediamine HCl)): 440 M⁻¹ s⁻¹ and 440 ± 12 M⁻¹ s⁻¹
Apparent second-order rate constant of oxime formation k2 (Tris pH 7, 5 μM CCVJ1, 20 μM AP DNA): 147 M⁻¹ s⁻¹ and 147 ± 8 M⁻¹ s⁻¹
Apparent second-order rate constant of oxime formation k2 (Tris pH 7.5): 51 ± 2 M⁻¹ s⁻¹
Apparent second-order rate constant of oxime formation k2 (Tris pH 8): 29 ± 1 M⁻¹ s⁻¹
rate in DEDA buffer, times faster than in Tris (pH 7.0): ~3 times
rate, times faster than typical oxime formation in neutral aqueous buffer (pH 7.0): 10^3-10^4 times
